According to ChEMBL document CHEMBL1155809, “Design, synthesis, and antihepatocellular carcinoma activity of nitric oxide releasing derivatives of oleanolic acid” (J Med Chem, 2008):
Calls of active or inactive are those of the source. The rule behind the calls is not given here.

Legend:
[1] = tested on: HepG2; test: Cytotoxicity against human HepG2 cells assessed as cell death after 24 hrs by lactate dehydrogenase release assay; assay type: functional, cell-based
[2] = tested on: Hep 3B2; test: Cytotoxicity against human Hep3B cells assessed as cell death after 24 hrs by lactate dehydrogenase release assay; assay type: functional, cell-based

## CC1(C)CC[C@]2(C(=O)OCCCCOc3no[n+]([O-])c3S(=O)(=O)c3ccccc3)CC[C@]3(C)C(=CC[C@@H]4[C@@]5(C)CC[C@H](OC(=O)C(F)(F)F)C(C)(C)[C@@H]5CC[C@]43C)[C@@H]2C1
[1]
  Activity: inactive
[2]
  Activity: inactive

## CC1(C)CC[C@]2(C(=O)O)CC[C@]3(C)C(=CC[C@@H]4[C@@]5(C)CC[C@H](OC(=O)CCC(=O)OCc6cccc(OCc7c(-c8ccccc8)no[n+]7[O-])c6)C(C)(C)[C@@H]5CC[C@]43C)[C@@H]2C1
[1]
  Activity: inactive
[2]
  Activity: inactive

## CC1(C)CC[C@]2(C(=O)OCc3cccc(OCc4c(-c5ccccc5)no[n+]4[O-])c3)CC[C@]3(C)C(=CC[C@@H]4[C@@]5(C)CC[C@H](OC(=O)C(F)(F)F)C(C)(C)[C@@H]5CC[C@]43C)[C@@H]2C1
[1]
  Activity: inactive
[2]
  Activity: inactive

## CC(CCOc1no[n+]([O-])c1S(=O)(=O)c1ccccc1)OC(=O)CCC(=O)O[C@H]1CC[C@]2(C)[C@H]3CC=C4[C@@H]5CC(C)(C)CC[C@]5(C(=O)OCc5ccccc5)CC[C@@]4(C)[C@]3(C)CC[C@H]2C1(C)C (stereo partly specified)
[1]
  Activity: inactive
[2]
  Activity: inactive

## CC1(C)CC[C@]2(C(=O)O)CC[C@]3(C)C(=CC[C@@H]4[C@@]5(C)CC[C@H](OC(=O)CCC(=O)OCc6ccc(Oc7no[n+]([O-])c7S(=O)(=O)c7ccccc7)cc6)C(C)(C)[C@@H]5CC[C@]43C)[C@@H]2C1
[1]
  Activity: inactive
[2]
  Activity: inactive

## CC1(C)CC[C@]2(C(=O)O)CC[C@]3(C)C(=CC[C@@H]4[C@@]5(C)CC[C@H](OC(=O)CCC(=O)Oc6cccc(OCc7c(-c8ccccc8)no[n+]7[O-])c6)C(C)(C)[C@@H]5CC[C@]43C)[C@@H]2C1
[1]
  Activity: inactive
[2]
  Activity: inactive

## CCOC(=O)[C@]12CCC(C)(C)C[C@H]1C1=CC[C@@H]3[C@@]4(C)CC[C@H](OC(=O)CCC(=O)OC(C)CCOc5no[n+]([O-])c5S(=O)(=O)c5ccccc5)C(C)(C)[C@@H]4CC[C@@]3(C)[C@]1(C)CC2 (stereo partly specified)
[1]
  Activity: inactive
[2]
  Activity: inactive

## CC1(C)CC[C@]2(C(=O)OCCCCOc3no[n+]([O-])c3S(=O)(=O)c3ccccc3)CC[C@]3(C)C(=CC[C@@H]4[C@@]5(C)CC[C@H](O)C(C)(C)[C@@H]5CC[C@]43C)[C@@H]2C1
[1]
  Activity: inactive
[2]
  Activity: inactive

## CCOC(=O)[C@]12CCC(C)(C)C[C@H]1C1=CC[C@@H]3[C@@]4(C)CC[C@H](OC(=O)CCC(=O)OCc5cccc(OCc6c(-c7ccccc7)no[n+]6[O-])c5)C(C)(C)[C@@H]4CC[C@@]3(C)[C@]1(C)CC2
[1]
  Activity: inactive
[2]
  Activity: inactive

## CC1(C)CC[C@]2(C(=O)OCc3ccccc3)CC[C@]3(C)C(=CC[C@@H]4[C@@]5(C)CC[C@H](OC(=O)CCC(=O)OCCCCOc6no[n+]([O-])c6S(=O)(=O)c6ccccc6)C(C)(C)[C@@H]5CC[C@]43C)[C@@H]2C1
[1]
  Activity: inactive
[2]
  Activity: inactive

## CC1(C)CC[C@]2(C(=O)OCc3ccccc3)CC[C@]3(C)C(=CC[C@@H]4[C@@]5(C)CC[C@H](OC(=O)CCC(=O)OCc6ccc(Oc7no[n+]([O-])c7S(=O)(=O)c7ccccc7)cc6)C(C)(C)[C@@H]5CC[C@]43C)[C@@H]2C1
[1]
  Activity: inactive
[2]
  Activity: inactive

## CC1(C)CC[C@]2(C(=O)OCc3c(-c4ccccc4)no[n+]3[O-])CC[C@]3(C)C(=CC[C@@H]4[C@@]5(C)CC[C@H](OC(=O)C(F)(F)F)C(C)(C)[C@@H]5CC[C@]43C)[C@@H]2C1
[1]
  Activity: inactive
[2]
  Activity: inactive

## CC1(C)CC[C@]2(C(=O)OCc3ccccc3)CC[C@]3(C)C(=CC[C@@H]4[C@@]5(C)CC[C@H](OC(=O)CCC(=O)OCc6cccc(Oc7no[n+]([O-])c7S(=O)(=O)c7ccccc7)c6)C(C)(C)[C@@H]5CC[C@]43C)[C@@H]2C1
[1]
  Activity: inactive
[2]
  Activity: inactive
